# Experimental data: ChEMBL document CHEMBL1138949, “Bromine- and iodine-substituted 16alpha,17alpha-dioxolane progestins for breast tumor imaging and radiotherapy: synthesis and receptor binding affinity” (J Med Chem, 2006)
# Target: T1, Progesterone receptor (Homo sapiens) (UniProt P06401)
# T1 sequence (whole entry): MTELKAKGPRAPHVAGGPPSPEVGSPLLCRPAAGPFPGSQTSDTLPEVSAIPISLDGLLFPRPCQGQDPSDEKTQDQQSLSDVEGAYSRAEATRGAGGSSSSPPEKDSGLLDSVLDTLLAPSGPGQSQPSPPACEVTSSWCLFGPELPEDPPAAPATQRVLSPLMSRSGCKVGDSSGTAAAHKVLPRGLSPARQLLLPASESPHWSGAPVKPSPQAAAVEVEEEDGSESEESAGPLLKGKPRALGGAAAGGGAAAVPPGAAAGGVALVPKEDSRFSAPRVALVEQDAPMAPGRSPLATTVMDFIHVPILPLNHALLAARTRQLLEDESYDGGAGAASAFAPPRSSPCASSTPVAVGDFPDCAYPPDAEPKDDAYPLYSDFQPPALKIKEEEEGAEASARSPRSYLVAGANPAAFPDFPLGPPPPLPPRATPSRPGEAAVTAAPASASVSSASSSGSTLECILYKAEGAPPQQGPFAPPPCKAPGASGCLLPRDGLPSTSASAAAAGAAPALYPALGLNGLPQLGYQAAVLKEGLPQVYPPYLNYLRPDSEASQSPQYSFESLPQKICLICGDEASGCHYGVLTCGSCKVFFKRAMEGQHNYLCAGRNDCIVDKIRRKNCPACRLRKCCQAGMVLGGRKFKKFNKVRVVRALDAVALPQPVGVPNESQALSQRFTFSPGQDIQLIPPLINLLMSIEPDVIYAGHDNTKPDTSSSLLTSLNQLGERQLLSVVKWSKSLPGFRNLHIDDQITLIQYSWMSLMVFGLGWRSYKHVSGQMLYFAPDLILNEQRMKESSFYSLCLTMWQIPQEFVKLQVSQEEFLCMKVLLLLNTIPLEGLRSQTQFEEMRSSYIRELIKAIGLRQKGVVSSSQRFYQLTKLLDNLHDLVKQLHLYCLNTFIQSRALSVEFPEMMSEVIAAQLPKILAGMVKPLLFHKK
# Experiment: Inhibition of [3H]R5020 binding to human recombinant progesterone receptor relative to R5020
row,Compound,relative binding affinity (RBA)
1,CC(=O)CC(=O)[C@@]12O[C@@H](c3ccc(Br)o3)O[C@@H]1C[C@H]1[C@@H]3CCC4=CC(=O)CC[C@@H]4[C@H]3CC[C@@]12C,1.4
2,C[C@]12CC[C@H]3[C@@H](CCC4=CC(=O)CC[C@@H]43)[C@@H]1C[C@H]1O[C@H](c3ccc(Br)s3)O[C@]12C(=O)CO,1.7
3,C[C@]12CC[C@H]3[C@@H](CCC4=CC(=O)CC[C@@H]43)[C@@H]1C[C@H]1O[C@@H](c3ccco3)O[C@]12C(=O)CF,180
4,C[C@]12CC[C@H]3[C@@H](CCC4=CC(=O)CC[C@@H]43)[C@@H]1C[C@H]1O[C@H](c3ccco3)O[C@]12C(=O)CF,5
5,C[C@]12CC[C@H]3[C@@H](CCC4=CC(=O)CC[C@@H]43)[C@@H]1C[C@H]1O[C@H](c3ccc(I)cc3)O[C@]12C(=O)CF,34
6,C[C@]12CC[C@H]3[C@@H](CCC4=CC(=O)CC[C@@H]43)[C@@H]1C[C@H]1O[C@@H](c3ccc(Br)cc3)O[C@]12C(=O)CF,3.9
7,C[C@]12CC[C@H]3[C@@H](CCC4=CC(=O)CC[C@@H]43)[C@@H]1C[C@H]1O[C@H](c3ccc(Br)o3)O[C@]12C(=O)CF,4.4
8,CC(=O)CC(=O)[C@@]12O[C@H](c3ccc(Br)o3)O[C@@H]1C[C@H]1[C@@H]3CCC4=CC(=O)CC[C@@H]4[C@H]3CC[C@@]12C,7.1
9,C[C@]12CC[C@H]3[C@@H](CCC4=CC(=O)CC[C@@H]43)[C@@H]1C[C@H]1O[C@@H](c3ccc(Br)s3)O[C@]12C(=O)CO,5.2
10,C[C@]12CC[C@H]3[C@@H](CCC4=CC(=O)CC[C@@H]43)[C@@H]1C[C@H]1O[C@H](c3ccc(Br)cc3)O[C@]12C(=O)CF,4.7
11,C[C@]12CC[C@H]3[C@@H](CCC4=CC(=O)CC[C@@H]43)[C@@H]1C[C@H]1O[C@H](c3ccc(Br)cc3)O[C@]12C(=O)CO,0.41
12,C[C@]12CC[C@H]3[C@@H](CCC4=CC(=O)CC[C@@H]43)[C@@H]1C[C@H]1O[C@H](c3ccc(I)cc3)O[C@]12C(=O)CO,1.8
13,C[C@]12CC[C@H]3[C@@H](CCC4=CC(=O)CC[C@@H]43)[C@@H]1C[C@H]1O[C@@H](c3ccc(I)cc3)O[C@]12C(=O)CF,6.4
14,C[C@]12CC[C@H]3[C@@H](CCC4=CC(=O)CC[C@@H]43)[C@@H]1C[C@H]1O[C@@H](c3ccc(I)cc3)O[C@]12C(=O)CO,0.81
15,C[C@]12CC[C@H]3[C@@H](CCC4=CC(=O)CC[C@@H]43)[C@@H]1C[C@H]1O[C@@H](c3ccc(Br)cc3)O[C@]12C(=O)CO,23

# Further lines, results first:
row,relative binding affinity (RBA),Compound
1,40,C[C@]12CC[C@H]3[C@@H](CCC4=CC(=O)CC[C@@H]43)[C@@H]1C[C@H]1O[C@@H](c3ccc(I)o3)O[C@]12C(=O)CF
2,2.4,C[C@]12CC[C@H]3[C@@H](CCC4=CC(=O)CC[C@@H]43)[C@@H]1C[C@H]1O[C@H](c3ccco3)O[C@]12C(=O)CO
3,2.6,C[C@]12CC[C@H]3[C@@H](CCC4=CC(=O)CC[C@@H]43)[C@@H]1C[C@H]1O[C@H](c3ccc(I)o3)O[C@]12C(=O)CO
4,65,C[C@]12CC[C@H]3[C@@H](CCC4=CC(=O)CC[C@@H]43)[C@@H]1C[C@H]1O[C@@H](c3ccc(Br)o3)O[C@]12C(=O)CO
5,3.2,C[C@]12CC[C@H]3[C@@H](CCC4=CC(=O)CC[C@@H]43)[C@@H]1C[C@H]1O[C@@H](c3ccc(I)s3)O[C@]12C(=O)CO
6,9,C[C@]12CC[C@H]3[C@@H](CCC4=CC(=O)CC[C@@H]43)[C@@H]1C[C@H]1O[C@H](c3ccc(I)o3)O[C@]12C(=O)CF
7,23,C[C@]12CC[C@H]3[C@@H](CCC4=CC(=O)CC[C@@H]43)[C@@H]1C[C@H]1O[C@@H](c3ccc(I)o3)O[C@]12C(=O)CO
8,2.3,C[C@]12CC[C@H]3[C@@H](CCC4=CC(=O)CC[C@@H]43)[C@@H]1C[C@H]1O[C@H](c3ccc(Br)o3)O[C@]12C(=O)CO
9,24,C[C@]12CC[C@H]3[C@@H](CCC4=CC(=O)CC[C@@H]43)[C@@H]1C[C@H]1O[C@@H](c3ccc(Br)o3)O[C@]12C(=O)CF
10,53,C[C@]12CC[C@H]3[C@@H](CCC4=CC(=O)CC[C@@H]43)[C@@H]1C[C@H]1O[C@@H](c3ccco3)O[C@]12C(=O)CO
11,0.95,C[C@]12CC[C@H]3[C@@H](CCC4=CC(=O)CC[C@@H]43)[C@@H]1C[C@H]1O[C@H](c3ccc(I)s3)O[C@]12C(=O)CO

# Target: T2, Progesterone receptor (Rattus norvegicus) (UniProt Q63449)
# T2 sequence (whole entry): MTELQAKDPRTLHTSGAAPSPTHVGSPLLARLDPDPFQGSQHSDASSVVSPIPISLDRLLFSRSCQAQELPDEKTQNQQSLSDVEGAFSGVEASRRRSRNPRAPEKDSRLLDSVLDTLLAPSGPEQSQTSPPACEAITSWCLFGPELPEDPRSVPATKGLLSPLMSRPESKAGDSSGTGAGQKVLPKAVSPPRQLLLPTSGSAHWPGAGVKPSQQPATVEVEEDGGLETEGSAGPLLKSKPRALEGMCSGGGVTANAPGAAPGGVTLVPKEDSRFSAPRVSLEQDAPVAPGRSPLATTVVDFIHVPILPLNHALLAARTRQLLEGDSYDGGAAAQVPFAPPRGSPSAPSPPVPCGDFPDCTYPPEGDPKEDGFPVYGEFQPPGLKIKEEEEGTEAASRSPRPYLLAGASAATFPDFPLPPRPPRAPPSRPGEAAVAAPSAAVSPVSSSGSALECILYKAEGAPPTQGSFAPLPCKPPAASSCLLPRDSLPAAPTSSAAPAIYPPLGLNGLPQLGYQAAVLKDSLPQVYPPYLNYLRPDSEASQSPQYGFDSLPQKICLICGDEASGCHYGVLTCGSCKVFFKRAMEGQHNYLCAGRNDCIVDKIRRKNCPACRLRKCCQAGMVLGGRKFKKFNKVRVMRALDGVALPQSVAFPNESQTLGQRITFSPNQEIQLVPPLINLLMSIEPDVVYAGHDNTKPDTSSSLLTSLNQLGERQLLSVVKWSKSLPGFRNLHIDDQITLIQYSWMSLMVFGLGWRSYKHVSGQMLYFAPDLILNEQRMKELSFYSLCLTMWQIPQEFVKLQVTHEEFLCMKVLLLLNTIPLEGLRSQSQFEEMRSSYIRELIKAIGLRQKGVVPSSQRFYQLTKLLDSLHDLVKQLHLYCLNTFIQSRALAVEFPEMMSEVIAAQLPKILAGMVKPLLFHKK
# Experiment: Inhibition of [3H]R5020 binding to rat uterine progesterone receptor relative to R5020
row,Compound,relative binding affinity (RBA)
1,C[C@]12CC[C@H]3[C@@H](CCC4=CC(=O)CC[C@@H]43)[C@@H]1C[C@H]1O[C@@H](c3ccco3)O[C@]12C(=O)CF,190
2,C[C@]12CC[C@H]3[C@@H](CCC4=CC(=O)CC[C@@H]43)[C@@H]1C[C@H]1O[C@H](c3ccco3)O[C@]12C(=O)CF,11

# Now from value to molecule:
row,relative binding affinity (RBA),Compound
1,2.5,C[C@]12CC[C@H]3[C@@H](CCC4=CC(=O)CC[C@@H]43)[C@@H]1C[C@H]1O[C@H](c3ccco3)O[C@]12C(=O)CO
2,55,C[C@]12CC[C@H]3[C@@H](CCC4=CC(=O)CC[C@@H]43)[C@@H]1C[C@H]1O[C@@H](c3ccco3)O[C@]12C(=O)CO
